{
  "source": "patent US10183015B2",
  "about": "“Heterocyclic compounds and methods of use” (Medivation Technologies LLC, priority 2015, dated 2019)",
  "format_in_all_cases": "in vivo",
  "key": {"[1]": {"tested_on": "diet-induced NASH obese insulin resistant mice", "assay": "DIN mouse model: plasma lipid levels", "conditions": "20 mg/kg, end of treatment", "procedure": "(§1) Male C57Bl/6J mice (8 weeks old) were housed in enriched ventilated cages (31×12.5×12.7 cm) throughout the experimental phase. Animals' cages litters were changed at least once a week. Animal were housed 5 per cage on inverted 12-hour light cycle (at 09:00 am lights off), 22±2° C. and 55±10% relative humidity. The acclimation period was 20 days. During the acclimation period, all mice were fed a standard diet (RM1 (E) 801492, SDS) and tap water ad libitum. After the acclimation period, mice were fed with the DIN diet (60% fat, cholesterol enriched) and fructose-enriched tap water ad libitum until the end of the experiment.\n(§2) At 6 weeks of diet, mice were 4-hour fasted (09:00 am to 1:00 pm) and blood (150 μl/EDTA) was collected at 01:00 pm by retro-orbital bleeding under isoflurane anesthesia. Mice were then allocated in 2 homogenous groups (n=12/group) according to their plasma levels of ALT (average levels: 685U/L), AST (average levels: 627U/L) and HOMA-IR index (average value: 4.7), into 2 homogenous groups (see values at day 0 in Tables 15A and 15B ALT/AST and Tables 16A and 16B for HOMA-IR). Mice were then treated once daily by oral gavage with vehicle (Group 1) or Compound #37 at 20 mg/kg (Group 2) for 70 days.\nTo investigate whether Compound #37 improves pre-existing steatosis/NASH pathology, a study was conducted using a 16-week diet-induced NASH mouse model. In this model, mice develop steatosis that progresses with inflammation and fibrosis that mimic many of the observed pathologies in human nonalcoholic fatty liver disease (NAFLD) and NASH (Hebbard & George, 2010). For 6 weeks, mice were fed a high-fat, high-cholesterol diet and provided drinking water containing fructose to induce liver pathology (Charlton et al, 2011). After 6 weeks, the mice were divided into 2 groups with similar mean aspartate aminotransferase (AST) and alanine aminotransferase (ALT) values (n=12 mice), although it should be noted that AST and ALT concentrations within both groups were higher and with greater variability than anticipated (e.g., mean ALT 677 U/L [SD, 401 U/L] in the vehicle control group and 693 U/L [SD, 365 U/L] in the Compound #37 group). After the animals were divided into 2 groups, the diet was continued for 10 additional weeks during which time 1 group received vehicle and the other was treated with 20 mg/kg/day Compound #37."}, "[2]": {"tested_on": "diet-induced NASH obese insulin resistant mice", "assay": "DIN mouse model: NAS scores", "set-up": "total / steatosis / inflammation / fibrosis / hepatocyte ballooning: scale not given here", "procedure": "NAFLD score analysis. A 0.5 cm^3 piece of liver was fixed in 10% formalin for 48-72h, stored in ethanol 70° at 4° C., and processed for eosin/hematoxylin staining and NAFLD score analysis. One section (thickness 3-5 μm) per block was deposited on Superfrost+slides for hematoxylin-eosin staining. Individual slides having a single hepatic lobe section stained with H&E were digitized using a Nanozoomer from Hamamatsu. Sections were evaluated with knowledge of groups. Each section was evaluated and individually scored. A NAFLD scoring system (NAS) adapted from Kleiner et al. (Hepatology 41, 1313-21, 2005), Wu et al. (BMC Vet. Res. 10, 162, 2014), and Lee et al. (J. Lipid Res. 48, 1885-96, 2007). A total of four variables were qualitatively assessed and ranked with a score: (1) hepatocellular steatosis, (2) liver inflammation, (3) lobular fibrosis, and (4) hepatocyte ballooning.\nas §1, §2\nEach section was evaluated and individually scored using the modified NAFLD scoring system described above."}, "SCD1": {"tested_on": "SCD1", "assay": "DIN mouse model: hepatic SCD1 gene expression", "set-up": "key to 2^DDct: expression relative to vehicle group, normalized to 18S", "conditions": "for 2^DDct / DDct / Dct / SCD1: Gene Expression: SCD1, 20 mg/kg group; for 18S: Gene Expression: SCD1 table, 18S reference, 20 mg/kg group", "procedure": "(§3) Gene expression analysis. Hepatic expression levels of genes involved in lipid metabolism (FAS, SREBP1, ACC1, SCD1), cholesterol metabolism (HMG-CoAR, LDLR), SREBP proteolysis (SCAP, INSIG1), ER stress (PERK), oxidative stress (NRF2), inflammation (MCP-1), and fibrosis (collagen 1α1) were quantified by RTqPCR. Expression level was normalized to 18S gene expression and relative expression to vehicle group was calculated with the […] method.\nas §1, §2\n(§4) Hepatic expression levels of genes involved in lipid (FAS, SREBP1, ACC1, SCD1), cholesterol metabolism (HMG-CoAR, LDLR), in SREBP proteolysis (SCAP, INSIG1), in ER stress (PERK), oxidative stress (NRF2), and inflammation (MCP-1) were not changed. However, expression of collagen 1α1, involved in liver fibrosis, was reduced by 66% in mice treated with Compound #37 (p<0.05 vs. vehicle)."}, "Coll1a1": {"tested_on": "Coll1a1", "assay": "DIN mouse model: hepatic Coll1a1 (collagen 1α1) gene expression", "set-up": "mean liver collagen α1(I) mRNA: unit not given here", "conditions": "for Coll1a1 Dct / Coll1a1 2^DDct / Coll1a1 DDct / Coll1a1 (Ct): liver, 20 mg/kg group", "procedure": "as §3, §1, §2, §4"}, "[3]": {"assay": "DIN mouse model: body weight, food and water intake, mortality", "procedure": "as §1, §2\nResults. […] Water intake tended to be higher in mice treated with, resulting in a 17% increase in cumulative water intake (p<0.05 vs. vehicle). […]"}, "[4]": {"tested_on": "60% high fat Paigen diet induced NASH mouse model", "assay": "Short-term Paigen-diet NASH mouse model: liver Oil Red O staining", "conditions": "40 mg/kg p.o. (stopped after 4 administrations), 9 days of diet"}, "[5]": {"conditions": "20 mg/kg, 70 days, p<0.05 vs. vehicle"}, "[6]": {"conditions": "NAS score, 20 mg/kg group, mean, n 11"}, "[7]": {"conditions": "individual animals, vs vehicle mean, 20 mg/kg"}},
  "note": "Several values for one entry are separate records, joined by “and”; a condition that tells them apart may be missing. Equal values may be shown once.",
  "data": [
    {"smiles": "CC(C)Cc1cc(-c2nc(-c3ccc(NS(=O)(=O)C(F)(F)F)cc3Cl)cs2)ccn1", "note": "[Compound 37, N-(3-chloro-4-(2-(2-isobutylpyridin-4-yl)thiazol-4-yl)phenyl)-1,1,1-trifluoromethanesulfonamide]", "values": [
      {"measurement": "HDL-cholesterol increase", "setting": "[1]; p<0.05 vs. vehicle", "value": 31, "unit": "%"},
      {"measurement": "plasma HDL cholesterol", "setting": "[1]; group mean, n 11", "value": 1.42, "unit": "g/L"},
      {"measurement": "plasma cholesterol", "setting": "[1]; group mean, n 11", "value": 1.82, "unit": "g/L"},
      {"measurement": "plasma free fatty acids", "setting": "[1]; group mean, n 11", "value": 0.59, "unit": "mM"},
      {"measurement": "plasma triglycerides", "setting": "[1]; group mean, n 11", "value": 0.40, "unit": "g/L"},
      {"measurement": "plasma HDL cholesterol", "setting": "[1]; individual animals", "value": "1.65 g/L and 1.68 g/L and 1.10 g/L and 1.47 g/L (2×) and 1.90 g/L and 1.12 g/L and 1.43 g/L and 0.62 g/L and 1.62 g/L and 1.56 g/L"},
      {"measurement": "plasma cholesterol", "setting": "[1]; individual animals", "value": "2.49 g/L and 2.36 g/L and 1.95 g/L and 1.67 g/L and 2.12 g/L and 1.38 g/L and 1.62 g/L and 1.15 g/L and 1.57 g/L and 1.86 g/L and 1.90 g/L"},
      {"measurement": "plasma free fatty acids", "setting": "[1]; individual animals", "value": "0.73 mM and 0.63 mM and 0.59 mM (3×) and 0.29 mM and 0.65 mM and 0.56 mM and 0.71 mM and 0.44 mM and 0.67 mM"},
      {"measurement": "plasma triglycerides", "setting": "[1]; individual animals", "value": "0.37 g/L (2×) and 0.3 g/L and 0.42 g/L and 0.35 g/L and 0.40 g/L and 0.34 g/L and 0.45 g/L and 0.50 g/L and 0.47 g/L and 0.39 g/L"},
      {"measurement": "inflammation score increase", "setting": "[2]; [5]", "value": 81, "unit": "%"},
      {"measurement": "fibrosis score reduction", "setting": "[2]; 20 mg/kg, 70 days, p=0.055 vs. vehicle", "value": 45, "unit": "%"},
      {"measurement": "total", "setting": "[2]; NAS score, 20 mg/kg group, individual animal, 20 mg/kg", "value": "7 and 8 and 3 (2×) and 5 (2×) and 6 (4×) and 4"},
      {"measurement": "fibrosis", "setting": "[2]; [6]", "value": 0.64},
      {"measurement": "hepatocyte ballooning", "setting": "[2]; [6]", "value": 1.91},
      {"measurement": "inflammation", "setting": "[2]; [6]", "value": 0.91},
      {"measurement": "steatosis", "setting": "[2]; [6]", "value": 1.91},
      {"measurement": "total", "setting": "[2]; [6]", "value": 5.36},
      {"measurement": "2^DDct", "setting": "SCD1; individual animal", "value": "1.76 and 2.30 and 0.58 and 0.87 and 0.84 and 1.40 and 1.54 and 1.64 and 0.61 and 0.42 and 2.57"},
      {"measurement": "DDct", "setting": "SCD1; individual animal", "value": "−0.81 and −1.20 and 0.78 and 0.20 and 0.26 and −0.48 and −0.62 and −0.71 and 0.72 and 1.25 and −1.36"},
      {"measurement": "Dct", "setting": "SCD1; individual animal", "value": "4.5 and 4.11 and 6.09 and 5.51 and 5.57 and 4.83 and 4.69 and 4.6 and 6.03 and 6.56 and 3.95"},
      {"measurement": "SCD1", "setting": "SCD1; individual animal", "value": "17.05 and 16.66 and 18.93 and 17.94 and 17.92 and 17.42 and 16.42 and 17.11 and 17.53 and 18.11 and 16.3"},
      {"measurement": "2^DDct", "setting": "SCD1; mean, n 11", "value": 1.32},
      {"measurement": "DDct", "setting": "SCD1; mean, n 11", "value": "−0.18"},
      {"measurement": "Dct", "setting": "SCD1; mean, n 11", "value": 5.1},
      {"measurement": "SCD1", "setting": "SCD1; mean, n 11", "value": 17.4},
      {"measurement": "18S", "setting": "SCD1; individual animal, 20 mg/kg", "value": "12.55 (2×) and 12.84 and 12.43 and 12.35 (2×) and 12.59 and 11.73 and 12.51 and 11.5 and 11.55"},
      {"measurement": "18S", "setting": "SCD1; mean, n 11", "value": 12.3},
      {"measurement": "expression of collagen 1α1 reduction", "setting": "Coll1a1; [5]", "value": 66, "unit": "%"},
      {"measurement": "mean liver collagen α1(I) mRNA", "setting": "Coll1a1; 20 mg/kg/day, 10 weeks, vehicle 1.45%, p<0.05", "value": 0.49},
      {"measurement": "Coll1a1 Dct", "setting": "Coll1a1; individual animals, normalised to 18S, 20 mg/kg", "value": "15 and 14.23 and 17.82 and 16.38 and 15.37 and 15.65 and 15.13 and 16.1 and 16.14 and 17.48 and 12.82"},
      {"measurement": "Coll1a1 2^DDct", "setting": "Coll1a1; [7]", "value": "0.48 and 0.82 and 0.07 and 0.19 and 0.37 and 0.31 and 0.44 and 0.23 and 0.22 and 0.09 and 2.19"},
      {"measurement": "Coll1a1 DDct", "setting": "Coll1a1; [7]", "value": "1.05 and 0.28 and 3.87 and 2.43 and 1.42 and 1.7 and 1.18 and 2.15 and 2.19 and 3.53 and −1.13"},
      {"measurement": "Coll1a1 (Ct)", "setting": "Coll1a1; individual animals, 20 mg/kg", "value": "27.55 and 26.78 and 30.66 and 28.81 and 27.72 and 28.24 and 26.86 and 28.61 and 27.64 and 29.03 and 25.17"},
      {"measurement": "Coll1a1 2^DDct", "setting": "Coll1a1; mean, n 11", "value": 0.49},
      {"measurement": "Coll1a1 (Ct)", "setting": "Coll1a1; mean, n 11", "value": 27.9},
      {"measurement": "Coll1a1 DDct", "setting": "Coll1a1; mean, n 11", "value": 1.70},
      {"measurement": "Coll1a1 Dct", "setting": "Coll1a1; mean, n 11", "value": 15.6},
      {"measurement": "body weight and body weight gain", "setting": "[3]; 20 mg/kg p.o. daily, 70 days", "value": "non-significant trend towards lower"},
      {"measurement": "tolerability", "setting": "[3]; 20 mg/kg/day, 10 weeks", "value": "generally well tolerated"},
      {"measurement": "Liver O red Oil staining, % labeling", "setting": "[4]; group mean", "value": 1.87, "unit": "%"},
      {"measurement": "Liver O red Oil staining, % labeling", "setting": "[4]; individual animals", "value": "2.53% and 2.54% and 1.12% and 1.28%"}
    ]}
  ]
}
